# Patent US20250129103A1, “METHODS FOR TREATMENT OF CANCER” (Frontier Medicines Corporation, priority 2022, published 2025)
# Experiments:
# [1] = Determination of logD (1-octanol / phosphate buffer pH 7.4); format: physicochemical; conditions: 1-octanol/phosphate buffer, pH 7.4, pH 7.4, 1-octanol/phosphate buffer; read-out: Log D, pH 7.4
# Outline: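 Each phase analysed by LCMS after 1 h shaking at 800 rpm and centrifugation, room temperature. Phases were mutually saturated 1-octanol and 100 mM phosphate buffer at pH 7.4. LogD derived from the phase concentrations.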
# [2] = biological target: KRAS G12C (GMPPNP-loaded) and cRAF (Ras-binding domain) interaction (Homo sapiens (Human), UniProt P01116, C118S/C51S/C80L/G12C); assay: Inhibition of KRAS G12C and cRAF binding (AlphaScreen); conditions: KRAS G12C loaded with GMPPNP, cRaf RBD, 2 hours preincubation; read-out: Raf-1 RBD K-Ras IC50
# Outline: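 AlphaScreen readout (680 nm excitation, 570 nm emission) of RBD binding after a 60-90 min bead step at room temperature. This step follows 2 h compound exposure of GMPPNP-preloaded KRAS G12C in Hepes pH 7.4 buffer with MgCl2 and 10 μM GMPPNP.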
# [3] = Determination of kinetic solubility (pH 7.4); format: physicochemical; conditions: phosphate buffer, pH 7.4, aqueous buffer, kinetic from dmso stock, 50 mM phosphate buffer pH 7.4, read-out: Ksol, pH 7.4
# Outline: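 Solubility taken from filtrate peak areas on a calibration curve (HPLC-UV, LC-MS/MS). Before filtration and centrifugation, compound was shaken for 2 h at room temperature in pH 7.4 50 mM phosphate buffer.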
# KRAS G12C (GMPPNP-loaded) and cRAF (Ras-binding domain) interaction, sequence (P01116 other isoform, or with tags, fused parts or gaps G12C/C51S/C80L/C118S): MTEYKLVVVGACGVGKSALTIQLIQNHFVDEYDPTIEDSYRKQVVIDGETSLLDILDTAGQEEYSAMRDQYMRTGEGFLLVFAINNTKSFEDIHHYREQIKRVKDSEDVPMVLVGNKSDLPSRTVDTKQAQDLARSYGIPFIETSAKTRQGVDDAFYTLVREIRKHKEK
SMILES,logD [1],IC50 [2] [nM],solubility kinetic at 2 h [3] [µg/mL]
N#CC[C@H]1CN(c2nc(OC[C@@]34CCCN3C[C@H](F)C4)nc3c(F)c(-c4cccc5cccc(F)c45)ncc23)CCN1C(=O)/C=C/CN1CCOCC1 [Compound 233],2.91,10 to 100,102
C[C@H]1CN(C/C=C/C(=O)N2CCN(c3nc(OC[C@@]45CCCN4C[C@H](F)C5)nc4c(F)c(-c5cccc6cccc(F)c56)ncc34)C[C@@H]2CC#N)C[C@H](C)O1 [Compound 235],3.75,10 to 100,72.5
C[C@@H]1CN(C/C=C/C(=O)N2CCN(c3nc(OC[C@@]45CCCN4C[C@H](F)C5)nc4c(F)c(-c5cccc6cccc(F)c56)ncc34)C[C@@H]2CC#N)C[C@@H](C)O1 [Compound 236],3.59,100 to 500,88
N#CC[C@H]1CN(c2nc(OC[C@@]34CCCN3C[C@H](F)C4)nc3c(F)c(-c4cccc5cccc(F)c45)ncc23)CCN1C(=O)/C=C/CN1CC2CC(C1)O2 [Compound 237],2.87,< 10,67
C[C@@H]1CN(C/C=C/C(=O)N2CCN(c3nc(OC[C@@]45CCCN4C[C@H](F)C5)nc4c(F)c(-c5cccc6ccc(F)c(F)c56)ncc34)C[C@@H]2CC#N)C[C@H](C)O1 [Compound 239],2.53,10 to 100,92.6
C[C@H]1CN(C/C=C/C(=O)N2CCN(c3nc(OC[C@@]45CCCN4C[C@H](F)C5)nc4c(F)c(-c5cccc6ccc(F)c(F)c56)ncc34)C[C@@H]2CC#N)C[C@H](C)O1 [Compound 240],3.42,10 to 100,49.5
C[C@@H]1CN(C/C=C/C(=O)N2CCN(c3nc(OC[C@@]45CCCN4C[C@H](F)C5)nc4c(F)c(-c5cccc6ccc(F)c(F)c56)ncc34)C[C@@H]2CC#N)C[C@@H](C)O1 [Compound 241],2.94,10 to 100,60.1
CCc1c(F)ccc2cccc(-c3ncc4c(N5CCN(C(=O)/C=C/CN6CC7CC(C6)O7)[C@@H](CC#N)C5)nc(OC[C@@]56CCCN5C[C@H](F)C6)nc4c3F)c12 [Compound 242],3.38,< 10,93.3
N#CC[C@H]1CN(c2nc(OC[C@@]34CCCN3C[C@H](F)C4)nc3c(F)c(-c4cccc5cccc(F)c45)ncc23)CCN1C(=O)/C=C/CN1CC2CCC(C1)O2 [Compound 245],2.91,10 to 100,74.4
Cc1c(F)ccc2cccc(-c3ncc4c(N5CCN(C(=O)/C=C/CN6CCOCC6)[C@@H](CC#N)C5)nc(OC[C@@]56CCCN5C[C@H](F)C6)nc4c3F)c12 [Compound 246],2.96,10 to 100,69.5
Cc1c(F)ccc2cccc(-c3ncc4c(N5CCN(C(=O)/C=C/CN6CC7CC(C6)O7)[C@@H](CC#N)C5)nc(OC[C@@]56CCCN5C[C@H](F)C6)nc4c3F)c12 [Compound 247],3.02,< 10,88.6
C#Cc1c(F)ccc2cccc(-c3ncc4c(N5CCN(C(=O)/C=C/CN6CC7CC(C6)O7)[C@@H](CC#N)C5)nc(OC[C@@]56CCCN5C[C@H](F)C6)nc4c3F)c12 [Compound 256],2.71,< 10,101
Cc1c(Cl)cccc1-c1ncc2c(N3CCN(C(=O)/C=C/CN4[C@@H]5CC[C@H]4COC5)[C@@H](CC#N)C3)nc(OC[C@@]34CCCN3C[C@H](F)C4)nc2c1F [Compound 273],3.1,< 10,124
N#CC[C@H]1CN(c2nc(OC[C@@]34CCCN3C[C@H](F)C4)nc3c(F)c(-c4cccc(Cl)c4C(F)F)ncc23)CCN1C(=O)/C=C/CN1[C@@H]2CC[C@H]1COC2 [Compound 275],2.73,< 10,106
N#CC[C@H]1CN(c2nc(OC[C@@]34CCCN3C[C@H](F)C4)nc3c(F)c(-c4cccc(Cl)c4C4CC4)ncc23)CCN1C(=O)/C=C/CN1C2COCC1C2 [Compound 278],3.3,< 10,66.6
N#CC[C@H]1CN(c2nc(OC[C@@]34CCCN3C[C@H](F)C4)nc3c(F)c(-c4ccccc4C(F)F)ncc23)CCN1C(=O)/C=C/CN1[C@@H]2CC[C@H]1COC2 [Compound 289],2.16,10 to 100,140
N#CC[C@H]1CN(c2nc(OC[C@@]34CCCN3C[C@H](F)C4)nc3c(F)c(-c4cccc(F)c4C(F)(F)F)ncc23)CCN1C(=O)/C=C/CN1[C@@H]2CC[C@H]1COC2 [Compound 292],2.54,< 10,112
N#CC[C@H]1CN(c2nc(OC[C@@]34CCCN3C[C@H](F)C4)nc3c(F)c(-c4cccc(Cl)c4C(F)(F)F)ncc23)CCN1C(=O)/C=C/CN1CC2CC(C1)O2 [Compound 295],2.75,< 10,102

# Further lines, results first:
logD [1],IC50 [2] [nM],solubility kinetic at 2 h [3] [µg/mL],SMILES
3.38,< 10,71.1,N#CC[C@H]1CN(c2nc(OC[C@@]34CCCN3C[C@H](F)C4)nc3c(F)c(-c4cccc5ccc(F)c(F)c45)ncc23)CCN1C(=O)/C=C/CN1CC2CCC(C1)O2 [Compound 249]
3.79,< 10,4.99,Cc1nccc(/C=C/C(=O)N2CCN(c3nc(OC[C@@]45CCCN4C[C@H](F)C5)nc4c(F)c(-c5cccc6ccc(F)c(C)c56)ncc34)C[C@@H]2CC#N)n1 [Compound 254]
2.81,< 10,169,N#CC[C@H]1CN(c2nc(OC[C@@]34CCCN3C[C@H](F)C4)nc3c(F)c(-c4cccc5cccc(Cl)c45)ncc23)CCN1C(=O)/C=C/CN1C[C@H]2CC[C@@H]1CO2 [Compound 258]
2.92,< 10,147,N#CC[C@H]1CN(c2nc(OC[C@@]34CCCN3C[C@H](F)C4)nc3c(F)c(-c4cccc5cccc(Cl)c45)ncc23)CCN1C(=O)/C=C/CN1C[C@@H]2CC[C@H]1CO2 [Compound 259]
3.14,10 to 100,56.7,N#CC[C@H]1CN(c2nc(OC[C@@]34CCCN3C[C@H](F)C4)nc3c(F)c(-c4cccc(Cl)c4C4CC4)ncc23)CCN1C(=O)/C=C/CN1CC2CCC(C1)O2 [Compound 261]
3.14,10 to 100,76.2,N#CC[C@H]1CN(c2nc(OC[C@@]34CCCN3C[C@H](F)C4)nc3c(F)c(-c4cccc5cccc(Cl)c45)ncc23)CCN1C(=O)/C=C/CN1CCOC2CC21 (stereo partly drawn) [Compound 274]
3,< 10,108,N#CC[C@H]1CN(c2nc(OC[C@@]34CCCN3C[C@H](F)C4)nc3c(F)c(-c4cccc(Cl)c4C4CC4)ncc23)CCN1C(=O)/C=C/CN1C[C@H]2C[C@@H]1CO2 [Compound 276]
3.54,< 10,70.4,C#Cc1c(F)ccc2cccc(-c3ncc4c(N5CCN(C(=O)/C=C/CN6CC7CCC(C6)O7)[C@@H](CC#N)C5)nc(OC[C@@]56CCCN5C[C@H](F)C6)nc4c3F)c12 [Compound 285]
3.23,< 10,114,CO[C@H]1CCN(C/C=C/C(=O)N2CCN(c3nc(OC[C@@]45CCCN4C[C@H](F)C5)nc4c(F)c(-c5cccc(Cl)c5C5CC5)ncc34)C[C@@H]2CC#N)C1 [Compound 287]
2.54,< 10,96.7,N#CC[C@H]1CN(c2nc(OC[C@@]34CCCN3C[C@H](F)C4)nc3c(F)c(-c4cccc(Cl)c4C(F)(F)F)ncc23)CCN1C(=O)/C=C/CN1C[C@@H]2C[C@H]1CO2 [Compound 293]
2.59,< 10,127,N#CC[C@H]1CN(c2nc(OC[C@@]34CCCN3C[C@H](F)C4)nc3c(F)c(-c4cccc(Cl)c4C(F)(F)F)ncc23)CCN1C(=O)/C=C/CN1C[C@H]2C[C@@H]1CO2 [Compound 294]
